# Data: patent US8193241B2, “Discodermolide analogues and methods of their use” (The Trustees Of The University Of Pennsylvania, priority 2007, dated 2012)
# Tests used:
# Assay type in all cases: cell-based
# [1] = tested on: ovarian (SKOV3) cell line; test: Antiproliferative activity, SKOV3; details: Homo sapiens, SK-OV-3
# [2] = tested on: breast (MCF-7) cell line; test: Antiproliferative activity, MCF-7; details: Homo sapiens, MCF7; MCF-7 breast cell line
# [3] = tested on: multi-drug resistant (MDR) cell line (NCI/ADR), over-expresses P-glycoprotein; test: Antiproliferative activity, NCI/ADR; details: Homo sapiens, NCI/ADR-RES
# [4] = tested on: wide range of cell lines, including breast (MCF-7), ovarian (SKOV3) and MDR (NCI/ADR); test: Antiproliferative assays over a series of cell lines (statements in words); details: wide range of cell lines incl. MCF-7, SKOV3, NCI/ADR
smiles,measurement,setting,value
"C=C/C=C\C(C)[C@H](OC(N)=O)[C@@H](C)[C@H](O)[C@@H](C)C/C(C)=C\[C@H](C)[C@@H](O)C(C)/C=C\c1ccc2ccc(=O)oc2c1 (single isomer, unassigned; (+)) [(+)-6]",IC50,[1],44 nM
same,IC50,[2],12 nM
same,IC50,[3],190 nM
same,Antiproliferative activity in words,[4],nanomolar activity similar to (+)-discodermolide 1
"CC/C=C\C(C)[C@H](OC(N)=O)[C@@H](C)[C@H](O)[C@@H](C)C/C(C)=C\[C@H](C)[C@@H](O)C(C)/C=C\c1ccc2ccc(=O)oc2c1 (single isomer, unassigned; (+)) [(+)-8]",IC50,[1],35 nM
same,IC50,[2],15 nM
same,IC50,[3],230 nM
same,Antiproliferative activity in words,[4],nanomolar activity equivalent to (+)-1 and (+)-6
"CC/C=C\C(C)[C@H](OC(N)=O)[C@@H](C)[C@H](O)[C@@H](C)C/C(C)=C\[C@H](C)[C@@H](O)C(C)/C=C\c1ccc2oc(=O)ccc2c1 (single isomer, unassigned; (+)) [(+)-9]",IC50,[1],1800 nM
same,IC50,[2],1600 nM
same,IC50,[3],3300 nM
same,Antiproliferative activity in words,[4],micromolar activity
"CC/C=C\C(C)[C@H](OC(N)=O)[C@@H](C)[C@H](O)[C@@H](C)C/C(C)=C\[C@H](C)[C@@H](O)C(C)/C=C\c1ccc2c(c1)N(C)C(=O)CO2 (single isomer, unassigned; (+)) [(+)-11]",IC50,[1],2400 nM
same,IC50,[2],1600 nM
same,IC50,[3],3200 nM
same,Antiproliferative activity in words,[4],micromolar activity
"CC/C=C\C(C)[C@H](OC(N)=O)[C@@H](C)[C@H](O)[C@@H](C)C/C(C)=C\[C@H](C)[C@@H](O)C(C)/C=C\c1ccc2c(c1)N(COC)C(=O)CO2 (single isomer, unassigned; (+)) [(+)-12]",IC50,[1],2900 nM
same,IC50,[2],3000 nM
same,IC50,[3],4000 nM
same,Antiproliferative activity in words,[4],micromolar activity
"C=C/C=C\[C@H](C)[C@H](OC(N)=O)[C@@H](C)[C@H](O)[C@@H](C)C/C(C)=C\[C@H](C)[C@@H](O)[C@@H](C)/C=C\[C@@H](O)CC1OC(=O)[C@H](C)[C@@H](O)[C@H]1C (single isomer, unassigned; (+)) [(+)-Discodermolide 1, (+)-discodermolide, reference compound]",IC50,[1],25 nM
same,IC50,[2],26 nM
same,IC50,[3],260 nM
"CC/C=C\C(C)[C@H](OC(N)=O)[C@@H](C)[C@H](O)[C@@H](C)C/C(C)=C\[C@H](C)[C@@H](O)C(C)/C=C\c1ccc2c(c1)NC(=O)CO2 (single isomer, unassigned; (-)) [(−)-10]",IC50,[1],790 nM
same,IC50,[2],430 nM
same,IC50,[3],840 nM
same,Antiproliferative activity in words,[4],micromolar activity
